Our source for the IC50 values is patent publication US10815224B2, “Monocyclic heteroaryl substituted compounds” (Bristol-Myers Squibb Company, priority 2016, dated 2020).

What is called IC50 is the concentration that inhibits the measured activity by half.

This assay deals with T1, PAR4 (Homo sapiens, UniProt Q96RI0).
T1 construct: expressed in transfected cells; host or cells: HEK293 PAR4 Clone 1.2A (BMS Arctic ID 383940)
T1 sequence (Q96RI0 18-385): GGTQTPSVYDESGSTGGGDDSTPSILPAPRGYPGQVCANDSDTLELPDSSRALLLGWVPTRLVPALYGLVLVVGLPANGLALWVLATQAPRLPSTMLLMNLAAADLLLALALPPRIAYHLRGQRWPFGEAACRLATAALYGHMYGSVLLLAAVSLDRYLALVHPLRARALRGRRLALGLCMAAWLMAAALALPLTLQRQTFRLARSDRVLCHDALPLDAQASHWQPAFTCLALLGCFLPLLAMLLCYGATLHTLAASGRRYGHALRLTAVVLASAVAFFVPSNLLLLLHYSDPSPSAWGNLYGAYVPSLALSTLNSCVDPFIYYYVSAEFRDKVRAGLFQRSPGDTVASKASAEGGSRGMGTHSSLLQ
The assay can be described thus: PAR4 FLIPR assay: calcium mobilization in PAR4-expressing HEK293 cells. Format: cell-based. The source says: The FLIPR assay is an exemplary in vitro assay for measuring the activity of the PAR4 antagonists of the present invention. In this assay, intracellular calcium mobilization is induced in PAR4 expressing cells by a PAR4 agonist and calcium mobilization is monitored.
HEK293 cells stably expressing PAR4 were generated by a standard method of transfection of human PAR4 (F2R23) cDNA expression vector and selected based on PAR4 protein expression or mRNA expression. […] Therefore, the same cells were also used to determine selectivity against PAR1 and agonist activity for both receptors.
FLIPR-based calcium mobilization assay in HEK293 cells was used to measure PAR4 antagonism, agonism, and selectivity against PAR1. […] Counter screens for agonist activity and PAR1 antagonist activity were also performed. […] Cells were plated overnight prior to the experiment in a black 384-well Purecoat Amine clear bottom plate (Becton Dickinson Biosciences, San Jose, Calif.) at 10,000 cells/well in 30 μL growth medium and incubated in a humidified chamber at 37° C. with 5% CO2 overnight. Prior to compound addition, the cell medium was replaced with 40 μL of 1× calcium and magnesium-containing Hank's Balanced Saline Solution (HBSS) (with 20 mM HEPES) and 1:1000 diluted fluorescent calcium indicator (Codex Biosolutions, Gaithersburg, Md.). After a 30 minute incubation period at 37° C., and a further 30 minute incubation and equilibration period at room temperature, 20 μL test compound (diluted in 1×HBSS buffer) was added at various concentrations at 0.17% dimethyl sulfoxide (DMSO) final concentration. Changes in fluorescence intensity were measured using a Functional Drug Screening System (FDSS, Hamamatsu, Japan) to determine agonist activities. The cells were then incubated for 30 minutes at room temperature followed by addition of 20 μL of agonist peptide for antagonist activity measurement. […] Compound potency was derived from 11-point concentration-response curves.
On the technique in general: Calcium assays in cells follow changes in intracellular calcium, usually with a dye or a luminescent sensor.
Turning to `COc1ccc(NC(=O)c2csc(-c3cc(C)cc4nc(OC(F)F)cnc34)n2)cc1` [Example 32, 2-(2-(difluoromethoxy)-7-methylquinoxalin-5-yl)-N-(4-methoxyphenyl)thiazole-4-carboxamide], the IC50 was determined as 2300 nM.

Consider `Cc1cc(-c2ncc(-c3ccccc3C(F)(F)F)s2)c2ncc(OC(F)F)nc2c1` [Example 16, 2-(2-(difluoromethoxy)-7-methylquinoxalin-5-yl)-5-(2-(trifluoromethyl)phenyl)thiazole], for which the IC50 is 110 nM.

With `Cc1cc(-c2nc(C)c(-c3ccn[nH]3)s2)c2ncc(OC(F)F)nc2c1` [Example 9, 2-(2-(difluoromethoxy)-7-methylquinoxalin-5-yl)-4-methyl-5-(1H-pyrazol-5-yl)thiazole], the half-maximal inhibitory concentration (IC50) stood at 5 nM.

For the molecule `Cc1cc(-c2cnn(-c3ccccc3)c2)c2ncc(OC(F)F)nc2c1` [Example 2, 2-(difluoromethoxy)-7-methyl-5-(1-phenyl-1H-pyrazol-4-yl)quinoxaline], the half-maximal inhibitory concentration (IC50) amounted to 790 nM.

On to `Cc1cc(-c2nc(C)c(-c3cc(F)ccc3O)s2)c2ncc(OC(F)F)nc2c1` [Example 11, 2-(2-(2-(difluoromethoxy)-7-methylquinoxalin-5-yl)-4-methylthiazol-5-yl)-4-fluoropheno], for which the IC50 stood at 7.5 nM.

For `COCc1cnc2c(-c3ncc(-c4ccn[nH]4)s3)cc(C)cc2n1` [Example 48, 2-(2-(methoxymethyl)-7-methylquinoxalin-5-yl)-5-(1H-pyrazol-5-yl)thiazole], the IC50 came to 3.1 nM.

In the case of `Cc1cc(-c2ncc(-c3cccnc3)s2)c2ncc(OC(F)F)nc2c1` [Example 29, 2-(2-(difluoromethoxy)-7-methylquinoxalin-5-yl)-5-(pyridin-3-yl)thiazole], the IC50 was determined as 60 nM.

Regarding `Cc1cc(-c2cnc(-c3ccccc3)s2)c2ncc(OC(F)F)nc2c1` [Example 3, 5-(2-(difluoromethoxy)-7-methylquinoxalin-5-yl)-2-phenylthiazole], the IC50 is 330 nM.

Consider `Cc1cc(-c2ncc(C3CCCCC3)s2)c2ncc(OC(F)F)nc2c1` [Example 17, 5-cyclohexyl-2-(2-(difluoromethoxy)-7-methylquinoxalin-5-yl)thiazole], for which the IC50 was found to be 75 nM.

Take `Cc1cc(-c2nnc(-c3ccccc3)s2)c2ncc(OC(F)F)nc2c1` [Example 35, 2-(2-(difluoromethoxy)-7-methylquinoxalin-5-yl)-5-phenyl-1,3,4-thiadiazole]: the IC50 amounted to 25 nM.

As to `Cc1cc(-c2ncc(-c3ccn[nH]3)s2)c2ncc(OC(F)F)nc2c1` [Example 40, 2-(2-(difluoromethoxy)-7-methylquinoxalin-5-yl)-5-(1H-pyrazol-5-yl)thiazole], the IC50 was determined as 23 nM.

As to `Cc1cc(-c2ccsn2)c2ncc(OC(F)F)nc2c1` [Example 5, 3-(2-(difluoromethoxy)-7-methylquinoxalin-5-yl)isothiazole], the IC50 worked out at 940 nM.

For the molecule `Cc1cc(-c2ncc(-c3ccc4cc[nH]c4c3)s2)c2ncc(OC(F)F)nc2c1` [Example 42, 2-(2-(difluoromethoxy)-7-methylquinoxalin-5-yl)-5-(1H-indol-6-yl)thiazole], the IC50 is 81 nM.

As to `CCNC(=O)c1cnc(-c2cc(C)cc3nc(OC)cnc23)s1` [Example 31, N-ethyl-2-(2-methoxy-7-methylquinoxalin-5-yl)thiazole-5-carboxamide], the concentration for half-maximal inhibition (IC50) stood at 450 nM.

Regarding `Cc1cc(-c2nc(C3CC3)cs2)c2ncc(OC(F)F)nc2c1` [Example 10, 4-cyclopropyl-2-(2-(difluoromethoxy)-7-methylquinoxalin-5-yl)thiazole], the half-inhibitory concentration (IC50) came to 300 nM.

Take `COc1cnc2c(-c3ncc(-c4cc(O)c(F)c(F)c4)s3)cc(C)cc2n1` [Example 46, 2,3-difluoro-5-(2-(2-methoxy-7-methylquinoxalin-5-yl)thiazol-5-yl)phenol]: the concentration for half-maximal inhibition (IC50) turned out to be 14 nM.

Consider `Cc1cc(-c2nc(C(=O)N3CCC(CO)CC3)cs2)c2ncc(OC(F)F)nc2c1` [Example 33, (2-(2-(difluoromethoxy)-7-methylquinoxalin-5-yl)thiazol-4-yl)(4-(hydroxymethyl)piperidin-1-yl)methanone], for which the IC50 worked out at 570 nM.
